Here are results for 13 compounds from ChEMBL document CHEMBL1151064, “Conformationally restricted 1,5-diarylpyrazoles are selective COX-2 inhibitors” (Bioorg Med Chem Lett, 1996).

Experiment [1] addresses T1, Prostaglandin G/H synthase 1 (Homo sapiens, UniProt P23219). Kind of experiment: Inhibition of Prostaglandin G/H synthase 1 (COX-1).
Experiment [2] addresses T1, Prostaglandin G/H synthase 1. Kind of experiment: Relative activity against COX-1/COX-2.
Experiment [3] concerns the target T2, Prostaglandin G/H synthase 2 (Homo sapiens, UniProt P35354).
T2 sequence (P35354 whole entry): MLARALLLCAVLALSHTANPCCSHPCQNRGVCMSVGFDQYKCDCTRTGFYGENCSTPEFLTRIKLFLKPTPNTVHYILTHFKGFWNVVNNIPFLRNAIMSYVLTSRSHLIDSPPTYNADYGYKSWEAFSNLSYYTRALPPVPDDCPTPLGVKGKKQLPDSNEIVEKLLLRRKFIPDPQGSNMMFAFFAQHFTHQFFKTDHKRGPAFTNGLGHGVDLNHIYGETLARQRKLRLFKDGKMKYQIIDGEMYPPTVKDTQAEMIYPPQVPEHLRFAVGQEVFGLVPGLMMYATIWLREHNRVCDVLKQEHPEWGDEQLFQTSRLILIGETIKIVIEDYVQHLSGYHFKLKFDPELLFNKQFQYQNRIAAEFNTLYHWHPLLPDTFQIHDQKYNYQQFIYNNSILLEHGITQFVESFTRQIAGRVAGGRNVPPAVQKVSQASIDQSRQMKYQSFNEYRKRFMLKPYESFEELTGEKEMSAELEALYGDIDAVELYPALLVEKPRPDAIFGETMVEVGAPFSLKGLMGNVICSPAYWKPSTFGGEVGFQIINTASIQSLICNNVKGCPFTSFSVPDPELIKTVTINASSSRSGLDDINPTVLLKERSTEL
Kind of experiment: Inhibition of Prostaglandin G/H synthase 2 (COX-2).

The test system of the next experiment is Rattus norvegicus. Kind of experiment: Compound was tested for inhibitory activity in carrageenan rat foot edema assay. Format: functional.

T1 sequence (P23219 whole entry): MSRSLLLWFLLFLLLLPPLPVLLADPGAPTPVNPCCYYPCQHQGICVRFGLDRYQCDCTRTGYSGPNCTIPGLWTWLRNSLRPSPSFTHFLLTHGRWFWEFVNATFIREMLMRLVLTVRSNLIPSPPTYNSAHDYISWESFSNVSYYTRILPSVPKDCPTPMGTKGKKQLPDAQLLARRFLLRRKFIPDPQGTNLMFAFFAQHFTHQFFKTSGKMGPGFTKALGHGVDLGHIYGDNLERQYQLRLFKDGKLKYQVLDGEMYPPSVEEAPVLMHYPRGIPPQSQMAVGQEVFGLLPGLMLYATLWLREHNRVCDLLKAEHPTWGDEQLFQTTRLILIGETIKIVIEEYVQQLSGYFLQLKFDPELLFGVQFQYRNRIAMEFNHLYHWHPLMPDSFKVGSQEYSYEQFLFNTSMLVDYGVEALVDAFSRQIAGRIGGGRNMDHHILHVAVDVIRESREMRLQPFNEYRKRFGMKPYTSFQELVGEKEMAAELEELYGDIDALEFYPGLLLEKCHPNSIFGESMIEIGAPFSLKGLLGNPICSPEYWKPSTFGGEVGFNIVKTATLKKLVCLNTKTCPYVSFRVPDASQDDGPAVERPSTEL

Regarding `COc1cc2c(cc1F)-c1c(c(C(F)F)nn1-c1ccc(S(N)(=O)=O)cc1)SC2`, the IC50 is over 100000 nM in experiment [1] and 32 nM in experiment [3]. Besides, the Ratio in experiment [2] was over 3120.

`COc1cc2c(cc1F)-c1c(c(C(F)(F)F)nn1-c1ccc(S(N)(=O)=O)cc1)SC2`: the IC50 in experiment [1] was 2730 nM; in experiment [3], 9 nM. The Ratio in experiment [2] turned out to be 303. Also, the ED50 in the experiment with Rattus norvegicus amounted to 17.7 mg/kg.

In the case of `NS(=O)(=O)c1ccc(-n2nc(C(F)(F)F)c3c2-c2ccc(F)cc2CS3)cc1`, the IC50 in experiment [1] was determined as 270 nM; in experiment [3], 40 nM. The Ratio in experiment [2] came to 7.

`COc1cc2c(cc1F)-c1c(c(C(F)(F)F)nn1-c1ccc(S(C)(=O)=O)cc1)SC2`: the IC50 is over 100000 nM in experiment [1] and 75 nM in experiment [3]. Besides, the Ratio in experiment [2] was over 1330.

As for `Cc1cc2c(cc1F)-c1c(c(C(F)(F)F)nn1-c1ccc(S(N)(=O)=O)cc1)SC2`, the 50% inhibitory concentration (IC50) turned out to be 11100 nM in experiment [1] and 16 nM in experiment [3]. Moreover, the Ratio in experiment [2] was found to be 693. This compound also came in with an ED50 in the experiment on Rattus norvegicus of 15 mg/kg.

`NS(=O)(=O)c1ccc(-n2nc(C(F)(F)F)c3c2-c2ccccc2CS3)cc1`: in experiment [2], the Ratio amounted to 20. Also, in experiment [3], inhibition was half-maximal at 20 nM (IC50).

With `NS(=O)(=O)c1ccc(-n2nc(C(F)(F)F)c3c2-c2ccccc2OC3)cc1`, the Ratio in experiment [2] was 5.3. In addition, the IC50 in experiment [3] is 1330 nM.

For `NS(=O)(=O)c1ccc(-n2nc(C(F)(F)F)c3c2-c2cc(F)ccc2CS3)cc1`, the IC50 was 6240 nM in experiment [1] and 21 nM in experiment [3]. Further, in experiment [2], the Ratio is 297.

As for `N#Cc1nn(-c2ccc(S(N)(=O)=O)cc2)c2c1SCc1cc(F)ccc1-2`, the IC50 in experiment [1] came out at 760 nM; in experiment [3], 140 nM. Also, the Ratio in experiment [2] was determined as 5.

For `Cc1ccc2c(c1)CSc1c(C(F)(F)F)nn(-c3ccc(S(N)(=O)=O)cc3)c1-2`, the IC50 in experiment [1] is 790 nM; in experiment [3] it was 22 nM. For the same compound, the Ratio in experiment [2] came to 36.

Turning to `COc1cc2c(cc1F)-c1c(c(C(F)(F)F)nn1-c1ccc(S(N)(=O)=O)cc1)[S+]([O-])C2` (centres undefined), the figures for the IC50 in experiment [1] and in experiment [3] were over 100000 nM and 1500 nM, respectively. Further, in experiment [2], the Ratio was over 67.

As to `COc1ccc2c(c1)CSc1c(C(F)(F)F)nn(-c3ccc(S(N)(=O)=O)cc3)c1-2`, the IC50 in experiment [1] was found to be 300 nM; in experiment [3], 13 nM. The Ratio in experiment [2] was found to be 23.

With `NS(=O)(=O)c1ccc(-n2nc(C(F)(F)F)c3c2-c2cc(F)c(F)cc2CS3)cc1`, the half-inhibitory concentration (IC50) turned out to be 2670 nM in experiment [1] and 6 nM in experiment [3]. Moreover, the Ratio in experiment [2] turned out to be 381.

In general, IC50 refers to the point on the concentration scale where inhibition reaches its midpoint. The term ED50 denotes the midpoint of the dose-response relation. The low end stands for greater potency, the high end for weaker potency.
